Data from paper PMC6788984, “High-potency ligands for DREADD imaging and activation in rodents and monkeys” (Nature Communications, 2019).

Columns and labels:
[1] = Serum and CSF concentrations in monkey (LC-MS/MS); format: in vivo, rhesus monkey (Macaca mulatta); conditions: 0.1 mg kg-1
Method: Monkey blood and CSF samples were collected from totally implanted subcutaneous access ports (Access Technologies, Virginia), connected to catheters indwelling in the femoral artery or intrathecal space of the spinal column, respectively. Rodent blood samples and brains were collected immediately following sacrifice at the indicated time points after intraperitoneal injection (10 ml kg^−1) in buffered saline. CSF was immediately frozen on dry ice and stored at −80 °C. Blood samples were allowed to coagulate for 15 min and then centrifuged at 4 °C for 15 min. Serum was collected from the supernatant and stored at a minimum of −30 °C until extraction. To 25 µl of serum, 5 µl of internal standard and 110 µl of methanol were added. Samples were centrifuged for 10 min at 16,200×g at 4 °C and the supernatant was transferred to the autosampler vial for analysis. Brains were cut in half and weighed prior to sample preparation. Half brains were homogenized in 490 µl of 85% ethanol: 15% water containing 0.1% formic acid and 5 µl of internal standard using a polytron homogenizer and centrifuged for 10 min at 16,200×g at 4 °C. […]
Data were acquired using a Nexera XR HPLC (Shimadzu) coupled with a QTRAP 6500 (SCIEX), and was analyzed with Analyst 1.6 (SCIEX). […]
The data were measured using standard curves and quality controls, but it was not validated to ICH guidelines. […]

[2] = tested on: animals without DREADD expression; assay: In vivo electrophysiology control: electrically evoked responses in animals without DREADD expression; design: species or system mouse; conditions: same injection
Method: (§1) For recording experiments, animals were anesthetized with […] urethane (i.p.), injected with 0.1 ml lidocaine (s.c.) in the incision points, and placed in a stereotaxic holder (Narishige, Japan). A trephine was drilled above the LA (from bregma, AP 1.5 mm, ML 3.1 mm) and the 32 channel opto-electrode was lowered whilst stimulating until a maximum response was located (DV 4 ± 0.2 mm). Body temperature was maintained constant at 37 °C through a feedback-regulated heating pad. Before recording, tissue was left for 10–20 mins for accommodation. Input–output test curves were recorded for both intensity and pulse length 30 min before and 1 h after drug injections using 1 ms-long pulses at 0.33 Hz (450 nm, 110 mA light intensity, ~14 mW, see Supplementary Fig. 10 Panel A). For electrical stimulation experiments (see Supplementary Fig. 10, Panels F–H), a stimulation bipolar twisted platinum–iridium microelectrode was placed in the internal capsule (AP −1.7 mm, ML 2.5 mm, DV 4.0 mm) to target the axons innervating the amygdala. Electrical pulses were given at an intensity that evoked 80% of the maximum response as biphasic 100 µs long pulses at 0.33 Hz.
Raw data were filtered (0.1–3000 Hz), amplified (100×), digitized and stored (10 kHz sampling rate) for offline analysis, with a tethered recording system (Multichannel Systems, Reutlingen, Germany). […]

hM4Di = molecular target: T1, hM4Di (Homo sapiens, UniProt P08173, A203G/Y113C); assay: In vivo electrophysiology: ChrimsonR light-evoked responses in LA of mice expressing hM4Di in MGM terminals; design: 026219; host or cells: mouse brain, dopamine D1 receptor-expressing neurons (transgene); species or system mouse; conditions: 0.1 mg kg-1 IP
T1 sequence (P08173 1-479 Y113C/A203G): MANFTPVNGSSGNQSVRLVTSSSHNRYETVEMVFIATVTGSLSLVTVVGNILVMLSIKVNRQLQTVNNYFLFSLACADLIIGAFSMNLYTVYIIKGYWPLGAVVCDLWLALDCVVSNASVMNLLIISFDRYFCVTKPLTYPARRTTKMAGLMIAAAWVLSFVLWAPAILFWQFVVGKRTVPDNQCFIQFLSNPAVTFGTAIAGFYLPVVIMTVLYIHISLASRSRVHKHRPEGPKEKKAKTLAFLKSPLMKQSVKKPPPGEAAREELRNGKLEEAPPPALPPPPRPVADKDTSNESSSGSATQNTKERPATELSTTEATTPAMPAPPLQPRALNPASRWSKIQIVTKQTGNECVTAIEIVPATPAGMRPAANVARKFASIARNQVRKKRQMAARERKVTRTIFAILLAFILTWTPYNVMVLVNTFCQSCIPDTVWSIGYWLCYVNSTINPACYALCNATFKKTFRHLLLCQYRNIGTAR
Method: Mice were purchased from Janvier Labs and stored in grouped cages (maximun 4 per cage) with ad libitum access to food and water, and in a 12 h light/dark cycle (lights on at 7:00 a.m.). All the experiments were performed in accordance to the national Danish law for the use of laboratory animals and approved by local authorities.
For AAV injection, mice were anaesthetized with Isoflurane and placed in a stereotaxic holder (Narishige, Japan). A trephine hole was drilled above the MGM (from bregma, AP 3.1 mm, ML 1.8 mm). Several injections of a mixture of ssAAV-8/2-hSyn1-hM4D(Gi)_mCherry-WPRE-hGHp(A) and ssAAV-8/2-hSyn1-oChIEF_ChrimsonR_mCitrine-WPRE-SV40pA (in a 1:4 viral particle ratio) were performed sequentially in different locations (AP 3.05 mm, ML 1.75 mm, DV 3.2 and 3.5 mm; second location AP 3.2 mm, ML 1.85 mm, DV 3.3 and 3.6 mm) so that a total of 4 injections of 0.5 µL were made to distribute the virus evenly through the desired location. Injections were made using a pressurized picospritzer and a pulled glass pipette. After viral injection, animals were kept for 4 weeks to ensure maximum virus expression through axon terminals.
as §1, with “For electrical stimulation experiments (see Supplementary Fig. 10, Panels F–H), a stimulation bipolar twisted platinum–iridium microelectrode was placed in the internal capsule (AP −1.7 mm, ML 2.5 mm, DV 4.0 mm) to target the axons innervating the amygdala. Electrical pulses were given at an intensity that evoked 80% of the maximum response as biphasic 100 µs long pulses at 0.33 Hz.” left out

With CCN1CCN(C2=Nc3cc(Cl)ccc3Nc3c(F)cccc32)CC1 [JHU37160, 8-Chloro-11-(4-ethylpiperazin-1-yl)-4-fluoro-5H-dibenzo[b,e][1,4]diazepine] the CSF concentration [1] was “below our system’s detection limit”, the serum detection [1] was “detected in serum” and the “effect on electrical stimulation evoked responses” value [2] was “no effect”. The “light-evoked response, % of baseline (maximal inhibition)” value (hM4Di; 30 min after injection) was 19 ± 2 % of baseline, the “inhibition of ChrimsonR-induced terminal activation” value (hM4Di; ~10 min) was 60% and the “light-evoked response, % of baseline” value (hM4Di; ~10 min) was 36 ± 9 % of baseline.
